Laboratory results: PubChem BioAssay AID1845216 (Molecular Pharmacology Branch, DTP, NCI, 2023)
Several values for one entry are separate records, joined by “and”; a condition that tells them apart may be missing. Identical values can stand only once.

System: SW 982 tumor spheroid viability
Experiment: Anticancer human tumor SW 982 cell line growth inhibition;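 also: spheroids exposed to compound for 7 days before readout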
Conditions: spheroids with HUVEC and MSC; for viability, T/C: stronger effect = lower value
Outline: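 Complex spheroids of malignant cells with endothelial cells and mesenchymal stem cells; agents alone or combined, from near clinical Cmax (or 10 microM if unknown) down in half-log steps, 0.25% DMSO final.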

[1] = curve of first compound, second compound 0.003 µM
[2] = second compound 0.003 µM, first compound 0.0316 µM
[3] = second compound 0.003 µM, first compound 0.1 µM
[4] = second compound 0.003 µM, first compound 0.316 µM
[5] = second compound 0.003 µM, first compound 1 µM
[6] = second compound 0.003 µM, first compound 3.16 µM
[7] = second compound 0.003 µM, first compound 10 µM

Q: Which results are given for `CC1COCCN1c1cc(-c2ccnn2C)c2ccnc(-c3ccn[nH]3)c2n1` (configuration not stated) + COc1cc2c(cc1O)CCNC21CSC2c3c(OC(C)=O)c(C)c4c(c3C(COC1=O)N1C(O)C3Cc5cc(C)c(OC)c(O)c5C(C21)N3C)OCO4?
A: IC50 (curve of first compound, second compound 30 pM): < 31.6 nM; IC50 (curve of first compound, second compound 94.9 pM): < 31.6 nM; IC50 (curve of first compound, second compound 0.0003 µM): < 31.6 nM; IC50 (curve of first compound, second compound 0.000949 µM): < 31.6 nM; IC50 [1]: < 31.6 nM; viability, T/C (second compound 30 pM, first compound 0.0316 µM): 30.3%; viability, T/C (second compound 30 pM, first compound 0.1 µM): 21.2%; viability, T/C (second compound 30 pM, first compound 0.316 µM): 16.3%; viability, T/C (second compound 30 pM, first compound 1 µM): 14.8%; viability, T/C (second compound 30 pM, first compound 3.16 µM): 16.5%; viability, T/C (second compound 30 pM, first compound 10 µM): 19.5%; viability, T/C (second compound 94.9 pM, first compound 0.0316 µM): 28%; viability, T/C (second compound 94.9 pM, first compound 0.1 µM): 19.8%; viability, T/C (second compound 94.9 pM, first compound 0.316 µM): 14.6%; viability, T/C (second compound 94.9 pM, first compound 1 µM): 12.7%; viability, T/C (second compound 94.9 pM, first compound 3.16 µM): 16.6%; viability, T/C (second compound 94.9 pM, first compound 10 µM): 18.9%; viability, T/C (second compound 0.0003 µM, first compound 0.0316 µM): 18.7%; viability, T/C (second compound 0.0003 µM, first compound 0.1 µM): 16.3%; viability, T/C (second compound 0.0003 µM, first compound 0.316 µM): 12.6%; viability, T/C (second compound 0.0003 µM, first compound 1 µM): 10.9%; viability, T/C (second compound 0.0003 µM, first compound 3.16 µM): 14.7%; viability, T/C (second compound 0.0003 µM, first compound 10 µM): 14.6%; viability, T/C (second compound 0.000949 µM, first compound 0.0316 µM): 13.8%; viability, T/C (second compound 0.000949 µM, first compound 0.1 µM): 10.5%; viability, T/C (second compound 0.000949 µM, first compound 0.316 µM): 6.7%; viability, T/C (second compound 0.000949 µM, first compound 1 µM): 4.79%; viability, T/C (second compound 0.000949 µM, first compound 3.16 µM): 3.55%; viability, T/C (second compound 0.000949 µM, first compound 10 µM): 1.4%; viability, T/C [2]: 1.23%; viability, T/C [3]: 1.25%; viability, T/C [4]: 0.44%; viability, T/C [5]: 0.7%; viability, T/C [6]: 0.39%; viability, T/C [7]: 0.98%

Q: Which IC50 [1] does the source give for `CC1COCCN1c1cc(-c2ccnn2C)c2ccnc(-c3ccn[nH]3)c2n1` (configuration not stated) + CC[C@@]1(O)C(=O)OCc2c1cc1n(c2=O)Cc2cc3c(CN(C)C)c(O)ccc3nc2-1 here?
A: < 31.6 nM

Q: What about the IC50 (curve of first compound, second compound 0.00949 µM) of the same compound?
A: < 31.6 nM

Q: What about the IC50 (curve of first compound, second compound 0.03 µM) of the same compound?
A: < 31.6 nM

Q: What about the IC50 (curve of first compound, second compound 0.0949 µM) of the same compound?
A: < 31.6 nM

Q: And the IC50 (curve of first compound, second compound 0.3 µM)?
A: < 31.6 nM

Q: What about the viability, T/C [2] of the same compound?
A: 24.8%

Q: And the viability, T/C [3]?
A: 17.2%

Q: What about the viability, T/C [4] of the same compound?
A: 12.2%

Q: And the viability, T/C [5]?
A: 7.73%

Q: What about the viability, T/C [6] of the same compound?
A: 9.86%

Q: And the viability, T/C [7]?
A: 13.6%

Q: What about the viability, T/C (second compound 0.00949 µM, first compound 0.0316 µM) of the same compound?
A: 16.3%

Q: And the viability, T/C (second compound 0.00949 µM, first compound 0.1 µM)?
A: 14.9%

Q: And the viability, T/C (second compound 0.00949 µM, first compound 0.316 µM)?
A: 10.3%

Q: And the viability, T/C (second compound 0.00949 µM, first compound 1 µM)?
A: 8.21%

Q: What about the viability, T/C (second compound 0.00949 µM, first compound 3.16 µM) of the same compound?
A: 9.89%

Q: And the viability, T/C (second compound 0.00949 µM, first compound 10 µM)?
A: 12.6%

Q: And the viability, T/C (second compound 0.03 µM, first compound 0.0316 µM)?
A: 18.2%

Q: What about the viability, T/C (second compound 0.03 µM, first compound 0.1 µM) of the same compound?
A: 10.3%

Q: What about the viability, T/C (second compound 0.03 µM, first compound 0.316 µM) of the same compound?
A: 8.15%

Q: And the viability, T/C (second compound 0.03 µM, first compound 1 µM)?
A: 7.1%

Q: And the viability, T/C (second compound 0.03 µM, first compound 3.16 µM)?
A: 10.2%

Q: And the viability, T/C (second compound 0.03 µM, first compound 10 µM)?
A: 13.3%

Q: What about the viability, T/C (second compound 0.0949 µM, first compound 0.0316 µM) of the same compound?
A: 12.1%

Q: What about the viability, T/C (second compound 0.0949 µM, first compound 0.1 µM) of the same compound?
A: 11.4%

Q: And the viability, T/C (second compound 0.0949 µM, first compound 0.316 µM)?
A: 9.49%

Q: And the viability, T/C (second compound 0.0949 µM, first compound 1 µM)?
A: 8.79%

Q: And the viability, T/C (second compound 0.0949 µM, first compound 3.16 µM)?
A: 9.28%

Q: What about the viability, T/C (second compound 0.0949 µM, first compound 10 µM) of the same compound?
A: 12%

Q: What about the viability, T/C (second compound 0.3 µM, first compound 0.0316 µM) of the same compound?
A: 12.1%

Q: What about the viability, T/C (second compound 0.3 µM, first compound 0.1 µM) of the same compound?
A: 8.63%

Q: And the viability, T/C (second compound 0.3 µM, first compound 0.316 µM)?
A: 7.14%

Q: What about the viability, T/C (second compound 0.3 µM, first compound 1 µM) of the same compound?
A: 6.54%

Q: And the viability, T/C (second compound 0.3 µM, first compound 3.16 µM)?
A: 7.28%

Q: What about the viability, T/C (second compound 0.3 µM, first compound 10 µM) of the same compound?
A: 7.84%

Q: What does the source list for `COc1ccc([C@@H](O)c2cc(-c3ncnc4cc(N5CCOCC5)ccc34)c(F)cc2Cl)nn1`?
A: viability, T/C (compound 0.0316 µM): 88.1% and 102% and 107%; viability, T/C (compound 0.1 µM): 87.4% and 93.8% and 101%; viability, T/C (compound 0.316 µM): 90.2% and 97.4% and 99.4%; viability, T/C (compound 1 µM): 89.2% (2×) and 98.7%; viability, T/C (compound 3.16 µM): 90.2% and 85.7% and 95.6%; viability, T/C (compound 10 µM): 57.1% and 67% and 70.2%; IC50 (curve of compound): > 10000 nM
